Earlier results on one compound are cited in patent publication US8735584B2 (Merck Patent GmbH, priority 2008, dated 2014).

Data set [1] concerns tumor cells of various origins / normal human cells. The note with it: in vitro; cited from earlier work.
In another data set the test system is human tumor xenograft. The note with it: human tumor xenograft model; several intermittent dosing schedules; cited from earlier work.

`Nc1nc(Nc2ccc(S(N)(=O)=O)cc2)nn1C(=O)c1c(F)cccc1F` [JNJ-7706621]: the “less effective at inhibiting normal human cell growth than tumor cell proliferation” value in data set [1] is “about 10 fold”. In the data set on human tumor xenograft, the antitumor activity result is recorded as “significant antitumor activity”.
